How the values were obtained:
[1] = tested on: control sera (pooled serum of ten healthy LUMC hospital workers; commercial negative donor pooled serum from the Dutch bloodbank); assay type: binding, human; set-up: Binding of Control serum LUMC to linear peptides / Binding of Control serum Blood-bank to linear peptides / Binding of Control serum LUMC to looped peptides / Binding of Control Serum Blood-Bank to Looped peptides / Binding of Control serum LUMC to linear peptides of the protein M of SARS-CoV Urbani / Binding of Control serum Blood-bank to linear peptides of the protein M of SARS-CoV Urbani / Binding of Control serum LUMC to looped peptides of the protein M of SARS-CoV Urbani / Binding of Control Serum Blood-Bank to Looped peptides of the protein M of SARS-CoV Urbani: unit not given here
[2] = tested on: antibodies in sera from SARS patients (sera 1a, 1b, 2, 6, 37, 62, London, SARS-yellow, SARS-green); assay type: binding, human; set-up: Binding of serum 6 to linear peptides of protein X1 of SARS-CoV Urbani / Binding of serum 37 to linear peptides of protein X1 of SARS-CoV Urbani / Binding of serum 6 to looped/cyclic peptide (PEPSCAN-ELISA) / Binding of serum 37 to looped/cyclic peptide (PEPSCAN-ELISA) / Binding of serum 37 to looped/cyclic peptides of protein X1 of SARS-CoV Urbani / Binding of serum 6 to linear peptides of protein X2 / Binding of serum 37 to linear peptides of protein X2 / Binding of serum 37 to looped/cyclic peptides of protein X2 of SARS-CoV Urbani / Binding of serum 6 to linear peptides of protein M of SARS-CoV Urbani / Binding of serum 37 to linear peptides of protein M of SARS-CoV Urbani / Binding of serum 6 to looped/cyclic peptides of protein M of SARS-CoV Urbani / Binding of serum 37 to looped/cyclic peptides of protein M of SARS-CoV Urbani / Binding of serum 6 to linear peptides of protein X3 of SARS-CoV Urbani / Binding of serum 37 to linear peptides of protein X3 of SARS-CoV Urbani / Binding of serum 37 to looped/cyclic peptides of protein X3 of SARS-CoV Urbani / Binding of serum 6 to linear peptides of protein X4 of SARS-CoV Urbani / Binding of serum 37 to linear peptides of protein X4 of SARS-CoV Urbani / Binding of serum 37 to looped/cyclic peptides of protein X4 of SARS-CoV Urbani / Binding of serum 6 to linear peptides of protein X5 of SARS-CoV Urbani / Binding of serum 37 to linear peptides of protein X5 of SARS-CoV Urbani / Binding of serum 37 to looped/cyclic peptides of protein X5 of SARS-CoV Urbani / Binding of serum 6 to linear peptides of protein N of SARS-CoV Urbani / Binding of serum 37 to linear peptides of protein N of SARS-CoV Urbani / Binding of serum 6 to linear peptide (PEPSCAN-ELISA) / Binding of serum 1a to looped/cyclic peptides of protein N of SARS-CoV Urbani / Binding of serum 1b to looped/cyclic peptides of protein N of SARS-CoV Urbani / Binding of serum 2 to looped/cyclic peptides of protein N of SARS-CoV Urbani / Binding of serum 6 to looped/cyclic peptides of protein N of SARS-CoV Urbani / Binding of serum 37 to looped/cyclic peptides of protein N of SARS-CoV Urbani / Binding of serum 62 to looped/cyclic peptides of protein N of SARS-CoV Urbani / Binding of serum London to looped/cyclic peptides of protein N of SARS-CoV Urbani / Binding of serum SARS-green to looped/cyclic peptides of protein N of SARS-CoV Urbani: unit not given here
[3] = tested on: rabbit serum obtained by immunizing a rabbit with the SARS-CoV strain Frankfurt 1; assay type: binding; set-up: Binding of a rabbit serum to linear peptides / Binding of a rabbit serum to looped peptides / Rabbit serum linear peptides / Rabbit serum looped peptides / Binding of a rabbit serum to linear peptides of protein N of SARS-CoV Urbani (Rabbit serum linear peptides) / Binding of a rabbit serum to looped/cyclic peptides of protein N of SARS-CoV Urbani (Rabbit serum looped peptides): unit not given here
[4] = tested on: recombinant human anti-SARS-CoV antibody 03-018; assay type: binding; set-up: Binding of antibody 03-018 to linear peptides of the N protein of SARS-CoV Urbani / Binding of antibody 03-018 to looped/cyclic peptides of the N protein of SARS-CoV Urbani: unit not given here

IGTRNPNNNAATVLQ
0.7: Binding of serum 2 to looped/cyclic peptides of protein N of SARS-CoV Urbani [2] | Binding of serum 37 to linear peptides of protein N of SARS-CoV Urbani [2] | Binding of serum SARS-green to looped/cyclic peptides of protein N of SARS-CoV Urbani [2]
0.5: Binding of serum London to linear peptides of protein N of SARS-CoV Urbani [2] | Binding of serum SARS-green to linear peptides of protein N of SARS-CoV Urbani [2] | Binding of serum SARS-yellow to looped/cyclic peptides of protein N of SARS-CoV Urbani [2]
0.2: Binding of serum 6 to linear peptides of protein N of SARS-CoV Urbani [2]
0.6: Binding of serum London to looped/cyclic peptides of protein N of SARS-CoV Urbani [2] | Binding of serum SARS-yellow to linear peptides of protein N of SARS-CoV Urbani [2]
0.1: Binding of serum 1b to linear peptides of protein N of SARS-CoV Urbani [2] | Binding of a rabbit serum to linear peptides of protein N of SARS-CoV Urbani (Rabbit serum linear peptides) [3] | Binding of antibody 03-018 to linear peptides of the N protein of SARS-CoV Urbani [4]
0.8: Binding of Control serum Blood-bank to linear peptides [1] | Binding of Control serum LUMC to looped peptides [1] | Binding of serum 62 to linear peptides of protein N of SARS-CoV Urbani [2] | Binding of serum 62 to looped/cyclic peptides of protein N of SARS-CoV Urbani [2]
0.9: Binding of Control Serum Blood-Bank to Looped peptides [1] | Binding of Control serum LUMC to linear peptides [1] | Binding of serum 37 to looped/cyclic peptides of protein N of SARS-CoV Urbani [2]
0.3: Binding of serum 1a to linear peptides of protein N of SARS-CoV Urbani [2] | Binding of serum 1b to looped/cyclic peptides of protein N of SARS-CoV Urbani [2] | Binding of antibody 03-018 to looped/cyclic peptides of the N protein of SARS-CoV Urbani [4]
0.4: Binding of serum 1a to looped/cyclic peptides of protein N of SARS-CoV Urbani [2] | Binding of serum 2 to linear peptides of protein N of SARS-CoV Urbani [2] | Binding of serum 6 to looped/cyclic peptides of protein N of SARS-CoV Urbani [2] | Binding of a rabbit serum to looped/cyclic peptides of protein N of SARS-CoV Urbani (Rabbit serum looped peptides) [3]

IGYYRRATRRVRGGD
0.4: Binding of serum 62 to linear peptides of protein N of SARS-CoV Urbani [2] | Binding of serum London to linear peptides of protein N of SARS-CoV Urbani [2] | Binding of serum London to looped/cyclic peptides of protein N of SARS-CoV Urbani [2]
0.5: Binding of Control serum LUMC to linear peptides [1] | Binding of serum 2 to looped/cyclic peptides of protein N of SARS-CoV Urbani [2] | Binding of serum 37 to linear peptides of protein N of SARS-CoV Urbani [2] | Binding of serum SARS-yellow to looped/cyclic peptides of protein N of SARS-CoV Urbani [2]
0.6: Binding of serum 62 to looped/cyclic peptides of protein N of SARS-CoV Urbani [2] | Binding of serum SARS-yellow to linear peptides of protein N of SARS-CoV Urbani [2]
0.3: Binding of serum 1a to looped/cyclic peptides of protein N of SARS-CoV Urbani [2] | Binding of serum 6 to looped/cyclic peptides of protein N of SARS-CoV Urbani [2] | Binding of serum SARS-green to looped/cyclic peptides of protein N of SARS-CoV Urbani [2]
recognized: Recognition of the peptide by the rabbit serum [3]
0.2: Binding of serum 1a to linear peptides of protein N of SARS-CoV Urbani [2] | Binding of serum 1b to looped/cyclic peptides of protein N of SARS-CoV Urbani [2] | Binding of serum 6 to linear peptides of protein N of SARS-CoV Urbani [2] | Binding of serum SARS-green to linear peptides of protein N of SARS-CoV Urbani [2] | Binding of antibody 03-018 to looped/cyclic peptides of the N protein of SARS-CoV Urbani [4]
0.1: Binding of serum 1b to linear peptides of protein N of SARS-CoV Urbani [2] | Binding of serum 2 to linear peptides of protein N of SARS-CoV Urbani [2] | Binding of antibody 03-018 to linear peptides of the N protein of SARS-CoV Urbani [4]
0.7: Binding of Control Serum Blood-Bank to Looped peptides [1] | Binding of Control serum Blood-bank to linear peptides [1] | Binding of Control serum LUMC to looped peptides [1] | Binding of serum 37 to looped/cyclic peptides of protein N of SARS-CoV Urbani [2]

ILLNKHIDAYKTFPP
0.3: Binding of serum 1b to looped/cyclic peptides of protein N of SARS-CoV Urbani [2] | Binding of serum 6 to looped/cyclic peptides of protein N of SARS-CoV Urbani [2] | Binding of serum SARS-green to linear peptides of protein N of SARS-CoV Urbani [2]
0.2: Binding of serum 1a to linear peptides of protein N of SARS-CoV Urbani [2] | Binding of serum 2 to linear peptides of protein N of SARS-CoV Urbani [2] | Binding of serum 6 to linear peptides of protein N of SARS-CoV Urbani [2] | Binding of a rabbit serum to linear peptides of protein N of SARS-CoV Urbani (Rabbit serum linear peptides) [3] | Binding of antibody 03-018 to looped/cyclic peptides of the N protein of SARS-CoV Urbani [4]
0.4: Binding of serum 1a to looped/cyclic peptides of protein N of SARS-CoV Urbani [2]
0.1: Binding of serum 1b to linear peptides of protein N of SARS-CoV Urbani [2] | Binding of antibody 03-018 to linear peptides of the N protein of SARS-CoV Urbani [4]
0.6: Control Serum Blood-Bank Looped peptides [1] | Binding of a rabbit serum to looped/cyclic peptides of protein N of SARS-CoV Urbani (Rabbit serum looped peptides) [3]
0.7: Control serum Blood-bank linear peptides [1] | Control serum LUMC linear peptides [1] | Control serum LUMC looped peptides [1] | Binding of serum 37 to linear peptides of protein N of SARS-CoV Urbani [2] | Binding of serum 37 to looped/cyclic peptides of protein N of SARS-CoV Urbani [2] | Binding of serum 62 to linear peptides of protein N of SARS-CoV Urbani [2] | Binding of serum 62 to looped/cyclic peptides of protein N of SARS-CoV Urbani [2] | Binding of serum SARS-yellow to looped/cyclic peptides of protein N of SARS-CoV Urbani [2]
0.5: Binding of serum 2 to looped/cyclic peptides of protein N of SARS-CoV Urbani [2] | Binding of serum London to linear peptides of protein N of SARS-CoV Urbani [2] | Binding of serum London to looped/cyclic peptides of protein N of SARS-CoV Urbani [2] | Binding of serum SARS-green to looped/cyclic peptides of protein N of SARS-CoV Urbani [2] | Binding of serum SARS-yellow to linear peptides of protein N of SARS-CoV Urbani [2]

INTNSGPDDQIGYYR
0.9: Binding of serum 37 to linear peptides of protein N of SARS-CoV Urbani [2]
0.3: Binding of serum 1a to linear peptides of protein N of SARS-CoV Urbani [2] | Binding of serum 1b to looped/cyclic peptides of protein N of SARS-CoV Urbani [2]
0.2: Binding of serum 1b to linear peptides of protein N of SARS-CoV Urbani [2] | Binding of serum 2 to linear peptides of protein N of SARS-CoV Urbani [2] | Binding of serum 6 to linear peptides of protein N of SARS-CoV Urbani [2] | Binding of serum 6 to looped/cyclic peptides of protein N of SARS-CoV Urbani [2] | Binding of serum SARS-green to linear peptides of protein N of SARS-CoV Urbani [2] | Binding of a rabbit serum to linear peptides of protein N of SARS-CoV Urbani (Rabbit serum linear peptides) [3] | Binding of antibody 03-018 to looped/cyclic peptides of the N protein of SARS-CoV Urbani [4]
0.6: Binding of Control Serum Blood-Bank to Looped peptides [1]
0.7: Binding of Control serum LUMC to linear peptides [1] | Binding of Control serum LUMC to looped peptides [1] | Binding of serum 37 to looped/cyclic peptides of protein N of SARS-CoV Urbani [2] | Binding of serum 62 to linear peptides of protein N of SARS-CoV Urbani [2] | Binding of serum SARS-yellow to linear peptides of protein N of SARS-CoV Urbani [2]
0.4: Binding of serum 1a to looped/cyclic peptides of protein N of SARS-CoV Urbani [2] | Binding of serum 2 to looped/cyclic peptides of protein N of SARS-CoV Urbani [2] | Binding of serum London to linear peptides of protein N of SARS-CoV Urbani [2] | Binding of serum London to looped/cyclic peptides of protein N of SARS-CoV Urbani [2]
0.5: Binding of serum 62 to looped/cyclic peptides of protein N of SARS-CoV Urbani [2] | Binding of serum SARS-green to looped/cyclic peptides of protein N of SARS-CoV Urbani [2] | Binding of serum SARS-yellow to looped/cyclic peptides of protein N of SARS-CoV Urbani [2] | Binding of a rabbit serum to looped/cyclic peptides of protein N of SARS-CoV Urbani (Rabbit serum looped peptides) [3]
0.1: Binding of antibody 03-018 to linear peptides of the N protein of SARS-CoV Urbani [4]
0.8: Binding of Control serum Blood-bank to linear peptides [1]

— patent US20070128217A1 (priority 2003, published 2007)
